Data: patent US11485751B2, “Apramycin derivatives” (WAYNE STATE UNIVERSITY, priority 2017, dated 2022)
pIC50: −log10 of the molar value. ≈ marks a conversion by molar mass, not a printed value.

How the values were obtained:
[1] = test system: clinical isolates carrying AAC(3)-IV; experiment: MIC broth microdilution, AAC(3)-IV; type: cell-based; conditions: clinical isolates, IMM Univ. Zurich; AAC(3)-IV; read-out: MIC AAC(3)-IV
How it was run: (§1)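 MICs obtained by broth microdilution following CLSI M07-A10, tested against clinical isolates from the Institute of Medical Microbiology, Univ. Zurich; values in μg/ml.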

[2] = test system: clinical isolates carrying APH(3′)-I; experiment: MIC broth microdilution, APH(3′)-I; type: cell-based; conditions: IMM Univ. Zurich
Source text: (§2) Minimal inhibitory concentrations (MIC) have been determined by broth microdilution assays (CLSI. Methods for Dilution Antimicrobial Susceptibility Tests for Bacteria That Grow Aerobically; Approved Standard—Tenth Edition. CLSI document M07-A10. Wayne, Pa.: Clinical and Laboratory Standards Institute; 2015.).
(§3) Minimal inhibitory concentrations (MICs, […]) against clinical isolates from Institute of Medical Microbiology, Univ. Zurich, and the IC50 values for bacterial, human mitochondrial and human cytosolic ribosomes are indicated.

[3] = test system: clinical isolates carrying APH(3′)-II; experiment: MIC broth microdilution, APH(3′)-II; type: cell-based; conditions: clinical isolates, IMM Univ. Zurich; APH(3′)-II; read-out: MIC APH(3′)-II
Source text: as §2, §3

[4] = test system: clinical isolates carrying APH(3′)-III; experiment: MIC broth microdilution, APH(3′)-III; type: cell-based; conditions: IMM Univ. Zurich
Source text: as §2, §3

[5] = test system: clinical isolates carrying APH(3′)-VI; experiment: MIC broth microdilution, APH(3′)-VI; type: cell-based; conditions: IMM Univ. Zurich
Source text: as §2, §3

bacterial ribosomes = experiment: in-vitro translation assay, bacterial ribosomes; type: biochemical
How it was run: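 Each ribosome preparation (bacterial, human chimeric as the mitochondrial model, rabbit reticulocyte as the cytosolic model) drives in-vitro translation with the test compound present. Inhibition of translation gives the IC50.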

[6] = test system: human mitochondrial ribosomes; experiment: in-vitro translation assay, human mitochondrial (human chimeric) ribosomes; type: biochemical
How it was run: (§4)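 Inhibitory potency was determined as IC50 in in-vitro translation systems based on bacterial ribosomes, human chimeric (mitochondrial-type) ribosomes or rabbit reticulocyte (cytosolic) ribosomes.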

[7] = test system: human cytosolic ribosomes; experiment: in-vitro translation assay, human cytosolic ribosomes; type: biochemical
How it was run: as §4

[8] = test system: AG212, Escherichia coli ATCC25922; experiment: MIC reference strain AG212; type: cell-based; conditions: Escherichia coli; reference strain ATCC25922; read-out: MIC AG212 E. coli
How it was run: (§5)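 MICs were determined by broth microdilution following CLSI guidelines for aerobically growing bacteria.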

[9] = test system: AG215, Klebsiella pneumonia; experiment: MIC reference strain AG215; type: cell-based; conditions: Klebsiella pneumoniae, reference strain; read-out: MIC AG215 K. pneumonia
How it was run: as §5

[10] = test system: AG290, Enterobacter cloacae; experiment: MIC reference strain AG290; type: cell-based; conditions: Enterobacter cloacae; reference strain; read-out: MIC AG290 E. cloacae
How it was run: as §5

[11] = test system: AG220, Pseudomonas aeruginosa ATCC27853; experiment: MIC reference strain AG220; type: cell-based; conditions: Pseudomonas aeruginosa, ATCC27853, reference strain ATCC27853; read-out: MIC AG220 P. aeruginosa
How it was run: as §5

[12] = test system: AG225, Acinetobacter baumannii pittii; experiment: MIC reference strain AG225; type: cell-based; conditions: Acinetobacter baumannii, reference strain; read-out: MIC AG225 A. baumannii
How it was run: as §5

[13] = test system: SZ380, Mycobacterium smegmatis; experiment: MIC reference strain SZ380; type: cell-based; conditions: Mycolicibacterium smegmatis, reference strain; read-out: MIC SZ380 M. smegmatis
How it was run: as §5

AG001 E. coli WT = experiment: Antibacterial activity, clinical isolate AG001; type: cell-based; design: unit not given here
How it was run: (§6)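 MIC values were determined by broth microdilution following the CLSI standard method for dilution susceptibility testing of aerobically growing bacteria.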

AG173 E. coli AAC(3)-IV = experiment: Antibacterial activity, clinical isolate AG173; type: cell-based
How it was run: as §6

AG038 MRSA = experiment: Antibacterial activity, clinical isolate AG038; type: cell-based; design: unit not given here
How it was run: as §6

AG031 P. aer. APH(3′)-II = experiment: Antibacterial activity, clinical isolate AG031; type: cell-based; design: unit not given here
How it was run: as §6

[14] = test system: Engineered E. coli pH430 WT; experiment: Activity, engineered E. coli pH430 WT; type: cell-based; conditions: wild type
How it was run: (§7)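 CLSI M07-A10 broth microdilution method used; values reported are minimal inhibitory concentrations.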

[15] = test system: Engineered E. coli pH424 armA; experiment: Activity against G1405-methylated 16S-rRNA, E. coli pH424 armA; type: cell-based
How it was run: as §7

[16] = test system: E. coli AG153 AAC(3)-II APH(3′)-II rmtB; experiment: Activity against G1405-methylated 16S-rRNA, clinical isolate AG153; type: cell-based
How it was run: as §7

[17] = test system: K. pneum. AG269 AAC(3)-II AAC(6′)-I rmtB; experiment: Activity against G1405-methylated 16S-rRNA, clinical isolate AG269; type: cell-based
How it was run: as §7

[18] = test system: Enterob. AG302 AAC(3)-II AAC(6′)-I rmtC; experiment: Activity against G1405-methylated 16S-rRNA, clinical isolate AG302; type: cell-based
How it was run: as §7

[19] = test system: A baum. AG227 APH(3′)-I armA; experiment: Activity against G1405-methylated 16S-rRNA, clinical isolate AG227; type: cell-based
How it was run: as §7

AG055 E. coli WT = experiment: Antibacterial activity, clinical isolate AG055; type: cell-based; design: unit not given here
How it was run: as §6

AG003 E. coli AAC(3)-II = experiment: Antibacterial activity, clinical isolate AG003; type: cell-based
How it was run: as §6

AG163 E. coli APH(3′)-I = experiment: Antibacterial activity, clinical isolate AG163; type: cell-based
Source text: as §2
Table 4 and 5 show the antibacterial activity of the compounds of the invention against bacterial reference strains (table 4) and against representative clinical isolates (table 5).

[20] = test system: AG039 MRSA AAC(6′)-I ANT(4′)-I; experiment: Antibacterial activity, clinical isolate AG039; type: cell-based
How it was run: as §6

[21] = test system: AG042 MRSA AAC(6′)-I ANT(4′)-I APH(2′); experiment: Antibacterial activity, clinical isolate AG042; type: cell-based; design: unit not given here
How it was run: as §6

AG032 P. aer. APH(3′)-II = experiment: Antibacterial activity, clinical isolate AG032; type: cell-based; design: unit not given here
How it was run: as §6

[22] = test system: AG033 P. aer. APH(3′)-II AAC(6′)-I; experiment: Antibacterial activity, clinical isolate AG033; type: cell-based; design: unit not given here
How it was run: as §6

[23] = test system: Engineered E. coli AG103 armA; experiment: Activity against G1405-methylated 16S-rRNA, E. coli AG103 armA; type: cell-based
How it was run: as §7

[24] = test system: Engineered E. coli pH425 rmtB; experiment: Activity against G1405-methylated 16S-rRNA, E. coli pH425 rmtB; type: cell-based
How it was run: as §7

[25] = test system: Engineered E. coli pH426 rmtC; experiment: Activity against G1405-methylated 16S-rRNA, E. coli pH426 rmtC; type: cell-based
How it was run: as §7

[26] = test system: Engineered E. coli pH427 rmtF; experiment: Activity against G1405-methylated 16S-rRNA, E. coli pH427 rmtF; type: cell-based
How it was run: as §7

WT clinical isolates = experiment: MIC broth microdilution, WT; type: cell-based; conditions: read-out: MIC WT, clinical isolates, IMM Univ. Zurich; wild type
How it was run: as §1

ATCC19977 M. abcessus = experiment: MIC reference strain ATCC19977; type: cell-based; conditions: read-out: MIC ATCC19977 M. abcessus
How it was run: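 Reported as MIC; method was a CLSI-conforming microdilution in broth.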

| SMILES | MIC [1] | MIC [2] | MIC [3] | MIC [4] | MIC [5] | pIC50 (bacterial ribosomes) | pIC50 [6] | pIC50 [7] | MIC [8] | MIC [9] | MIC [10] | MIC [11] | MIC [12] | MIC [13] | Antibacterial activity AG001 E. coli WT (AG001 E. coli WT) | Antibacterial activity AG173 E. coli AAC(3)-IV (AG173 E. coli AAC(3)-IV) | Antibacterial activity AG038 MRSA (AG038 MRSA) | Antibacterial activity AG031 P. aer. APH(3′)-II (AG031 P. aer. APH(3′)-II) | Activity E. coli pH430 WT [14] | Activity E. coli pH424 armA [15] | other results |
| --- | --- | --- | --- | --- | --- | --- | --- | --- | --- | --- | --- | --- | --- | --- | --- | --- | --- | --- | --- | --- | --- |
| CNC1C(O)C2O[C@H](O[C@@H]3C(N)C[C@@H](N)C(O)[C@H]3O[C@@H]3O[C@H](CNCCN)[C@@H](O)[C@H]3O)C(N)C[C@@H]2O[C@@H]1O[C@H]1OC(CO)[C@@H](N)[C@H](O)C1O (stereo partly shown) [DC214] | 8 to 16 µg/mL (≈ 11.2 to 22.4 µM) | 2 µg/mL (≈ 2.8 µM) | 4 µg/mL (≈ 5.6 µM) | 1 µg/mL (≈ 1.4 µM) | 4 µg/mL (≈ 5.6 µM) | 7.05 | 3.75 | 4.07 | 2 µg/mL | 1 µg/mL | 1 to 2 µg/mL | 8 µg/mL | 8 µg/mL | 0.25 µg/mL | 2 | 16 | 4 | 8-16 | 4 | 2 | Activity E. coli AG153 AAC(3)-II APH(3′)-II rmtB [16]: 2; Activity K. pneum. AG269 AAC(3)-II AAC(6′)-I rmtB [17]: 2; Activity Enterob. AG302 AAC(3)-II AAC(6′)-I rmtC [18]: 1-2; Activity A baum. AG227 APH(3′)-I armA [19]: 4-8 |
| CNC1C(OC2OC(CO)C(N)C(O)C2O)OC2CC(N)C(OC3C(N)CC(N)C(O)C3OC3OCC(O)C3O)OC2C1O (stereo not drawn) [DC146, 5-O-β-D—(Erythrofuranosyl) apramycin] | 32 µg/mL (≈ 49.9 µM) | 4 µg/mL (≈ 6.23 µM) | 4 µg/mL (≈ 6.23 µM) | 1 µg/mL (≈ 1.56 µM) | 8 µg/mL (≈ 12.5 µM) | 7.05 | 3.67 | 3.49 | 16 µg/mL | 4 µg/mL | 4 µg/mL | 32 µg/mL | 8 µg/mL | – | 16 | 128 | 16-32 | 64 | 8 | 4 | Antibacterial activity AG055 E. coli WT (AG055 E. coli WT): 16; Antibacterial activity AG003 E. coli AAC(3)-II (AG003 E. coli AAC(3)-II): 16; Antibacterial activity AG163 E. coli APH(3′)-I (AG163 E. coli APH(3′)-I): 8; Antibacterial activity AG039 MRSA AAC(6′)-I ANT(4′)-I [20]: 16-32; Antibacterial activity AG042 MRSA AAC(6′)-I ANT(4′)-I APH(2′) [21]: 16; Antibacterial activity AG032 P. aer. APH(3′)-II (AG032 P. aer. APH(3′)-II): 64; Antibacterial activity AG033 P. aer. APH(3′)-II AAC(6′)-I [22]: 64-128; Activity E. coli AG103 armA [23]: 1; Activity E. coli pH425 rmtB [24]: 4; Activity E. coli pH426 rmtC [25]: 8; Activity E. coli pH427 rmtF [26]: 4 |
| CNC1C(O)C2O[C@H](O[C@@H]3C(N)C[C@@H](N)C(O)[C@H]3OC3O[C@H](CN)[C@@H](O)[C@H]3O)C(N)C[C@@H]2O[C@@H]1O[C@H]1OC(CO)[C@@H](N)[C@H](O)C1O (stereo partly shown) [DC201] | 16 µg/mL (≈ 23.9 µM) | 2 to 4 µg/mL (≈ 2.98 to 5.96 µM) | 4 µg/mL (≈ 5.96 µM) | 1 µg/mL (≈ 1.49 µM) | 4 µg/mL (≈ 5.96 µM) | 6.92 | 3.95 | 4.09 | 4 µg/mL | 2 µg/mL | 2 µg/mL | 4 to 8 µg/mL | 4 to 8 µg/mL | 0.25 µg/mL | 4 | – | 2-4 | 16 | 8 | 2 | MIC (WT clinical isolates): 8 µg/mL (≈ 11.9 µM); MIC (ATCC19977 M. abcessus): 1 to 2 µg/mL (≈ 1.49 to 2.98 µM); Activity E. coli AG153 AAC(3)-II APH(3′)-II rmtB [16]: 8; Activity K. pneum. AG269 AAC(3)-II AAC(6′)-I rmtB [17]: 4; Activity Enterob. AG302 AAC(3)-II AAC(6′)-I rmtC [18]: 4; Activity A baum. AG227 APH(3′)-I armA [19]: 8-16 |
